Where two headings read alike, the source gives them in different places.
What was measured:
Assay type in all cases: cell-based, HIV-1
HIV-IIIb (wildtype) = experiment: Antiviral assay in MT4 cells, HIV-IIIb wildtype; conditions: read-out: WT EC50
Procedure: (§1) Antiviral Assay in MT4 Cells
(§2) For the antiviral assay, 0.4 μL of 189X test concentration of 3-fold serially diluted compound in DMSO was added to 40 μL of cell growth medium (RPMI 1640, 10% FBS, 1% Penicillin-Streptomycin, 1% L-Glutamine, 1% HEPES) in each well of 384-well plate (10 concentrations) in quadruplicate.
(§3) 1 mL Aliquots of MT4 cells were pre-infected for 3 hours at 37° C. with 25 μL of cell growth medium (mock-infected) or a fresh 1:250 dilution of an HIV-IIIb (wildtype, IN T174I BT, or IN T174I DE) concentrated ABI stock (0.004 m.o.i.). IN T174I BT virus was derived from viral breakthrough (BT) assay as described in Mulato, A.; Hansen, D.; Thielen, A.; Porter, D.; Stepan, G.; White, K.; Daeumer, M.; Cihlar, T.; Yant, S. R. AIDS Research and Human Retrovirues, July 2016, ahead of print. doi:10.1089/aid.2016.0071. IN T174I DE virus was derived from serial passaging with dose escalation (DE) of test compound. Infected and uninfected cells were diluted in cell growth media and 35 μL (2000 cells) was added to each well of the assay plates.
(§4) Assay plates were then maintained in a humidified, 5% CO2 incubator at 37° C. After 5 days of incubation, 25 μl of 2× concentrated CellTiter-Glo™ Reagent (catalog # G7573, Promega Biosciences, Inc., Madison, Wis.) was added to each well of the assay plate. Cell lysis was carried out by incubating at room temperature for 10 minutes and then chemiluminescence was read using an Envision plate reader (PerkinElmer). EC50 values were calculated as the compound concentration that caused a 50% […] in luminescence signal, a measure of HIV-1 replication.

HIV-IIIb IN T174I DE = experiment: Antiviral assay in MT4 cells, HIV-IIIb IN T174I DE virus (from dose escalation passaging)
Procedure: as §1, §2, §3, §4

HIV-IIIb IN T174I BT = experiment: Antiviral assay in MT4 cells, HIV-IIIb IN T174I BT virus (from viral breakthrough)
Procedure: as §1, §2, §3, §4

[1] = Human immunodeficiency virus 1, IIIB, MT4, 120 h
[2] = Human immunodeficiency virus 1, IIIB, MT4, 120 h, read-out: T174I DE EC50, MT4 cells, HIV-IIIb IN T174I DE (dose escalation), 5 days, CellTiter-Glo
[3] = Human immunodeficiency virus 1, IIIB, MT4, 120 h, read-out: T174I BT EC50, MT4 cells, HIV-IIIb IN T174I BT (viral breakthrough), 5 days, CellTiter-Glo
[4] = Human immunodeficiency virus 1, 120 h, MT4 cells, HIV-IIIb wildtype, 5 days, CellTiter-Glo

Work on `Cc1cc2nc(-c3ccc4c(c3)c(C3CCN(CC5CCO5)CC3)nn4C)sc2c(-c2ccc(Cl)cc2)c1[C@H](OC(C)(C)C)C(=O)O` (stereo partly drawn) [Compound 6, (2S)-2-(tert-butoxy)-2-(7-(4-chlorophenyl)-5-methyl-2-(1-methyl-3-(1-(oxetan-2-ylmethyl)piperidin-4-yl)-1H-indazol-5-yl)benzo[d]thiazol-6-yl)acetic Acid] yielded an EC50 (HIV-IIIb (wildtype); [1]) of 0.004 µM, an EC50 (HIV-IIIb IN T174I DE; [2]) of 0.577 µM and an EC50 (HIV-IIIb IN T174I BT; [3]) of 0.283 µM.

Work on `CC(=O)N1CC(N2CCC(c3cn(C)c4ncc(-c5nc6cc(C)c([C@H](OC(C)(C)C)C(=O)O)c(-c7ccc(Cl)cc7)c6s5)cc34)CC2)C1` [Compound 204, (S)-2-(2-(3-(1-(1-acetylazetidin-3-yl)piperidin-4-yl)-1-methyl-1H-pyrrolo[2,3-b]pyridin-5-yl)-7-(4-chlorophenyl)-5-methylbenzo [d]thiazol-6-yl)-2-(tert-butoxy) acetic acid] yielded an EC50 (HIV-IIIb (wildtype); [1]) of 0.015 µM, an EC50 (HIV-IIIb IN T174I DE; [2]) of 0.636 µM and an EC50 (HIV-IIIb IN T174I BT; [3]) of 0.255 µM.

Compound `Cc1cc2nc(-c3ccc4c(c3)c(N3CC5CCC(C3)O5)nn4C)sc2c(-c2ccc(Cl)cc2)c1[C@H](OC(C)(C)C)C(=O)O` [Compound 141, (2S)-2-(2-(3-(8-oxa-3-azabicyclo [3.2.1]octan-3-yl)-1-methyl-1H-indazol-5-yl)-7-(4-chlorophenyl)-5-methylbenzo [d]thiazol-6-yl)-2-(tert-butoxy) acetic acid] has an EC50 (HIV-IIIb (wildtype); [1]) of 0.024 µM, an EC50 (HIV-IIIb IN T174I DE; [2]) of 3.93 µM and an EC50 (HIV-IIIb IN T174I BT; [3]) of 3.56 µM.

`COC(=O)N1CC(N2CCC(c3nn(C4CC4)c4ccc(-c5nc6cc(C)c([C@H](OC(C)(C)C)C(=O)O)c(-c7ccc(Cl)cc7)c6s5)nc34)CC2)C1` [Compound 180, (S)-2-(tert-butoxy)-2-(7-(4-chloro-phenyl)-2-(1-cyclopropyl-3-(1-(1-(methoxy-carbonyl)azetidin-3-yl)piperidin-4-yl)-1H-pyrazolo [4,3-b]pyridin-5-yl)-5-methylbenzo [d]thiazol-6-yl) acetic acid] was tested, and the EC50 (HIV-IIIb (wildtype); [1]) was 0.004 µM, the EC50 (HIV-IIIb IN T174I DE; [2]) was 0.212 µM and the EC50 (HIV-IIIb IN T174I BT; [3]) was 0.064 µM.

In the case of `Cc1cc2nc(-c3ccc4c(c3)c(N3CC(N(C)C)C3)nn4C)sc2c(-c2ccc(Cl)cc2)c1[C@H](OC(C)(C)C)C(=O)O` [Compound 90, (S)-2-(tert-butoxy)-2-(7-(4-chlorophenyl)-2-(3-(3-(dimethylamino)azetidin-1-yl)-1-methyl-1H-indazol-5-yl)-5-methylbenzo[d]thiazol-6-yl)acetic Acid], the EC50 (HIV-IIIb (wildtype); [1]) is reported as 0.008 µM, the EC50 (HIV-IIIb IN T174I DE; [2]) is reported as 1.35 µM and the EC50 (HIV-IIIb IN T174I BT; [3]) is reported as 1.18 µM.

With `CCN1CCC(c2nn(C)c3ccc(-c4nc5cc(C)c([C@H](OC(C)(C)C)C(=O)O)c(-c6ccc(Cl)cc6)c5s4)cc23)C1` (stereo partly drawn) [Compound 64, (2S)-2-(tert-butoxy)-2-(7-(4-chlorophenyl)-2-(3-(1-ethylpyrrolidin-3-yl)-1-methyl-1H-indazol-5-yl)-5-methylbenzo[d]thiazol-6-yl)acetic acid] the EC50 (HIV-IIIb (wildtype); [1]) was 0.011 µM, the EC50 (HIV-IIIb IN T174I DE; [2]) was 2.62 µM and the EC50 (HIV-IIIb IN T174I BT; [3]) was 2.84 µM.

`Cc1cc2nc(-c3ccc4c(c3)c(C3CCN(C(=O)[C@@H]5CCCO5)CC3)nn4C)sc2c(-c2ccc(Cl)cc2)c1[C@H](OC(C)(C)C)C(=O)O` [Compound 157, (S)-2-(tert-butoxy)-2-(7-(4-chloro-phenyl)-5-methyl-2-(1-methyl-3-(1-((S)-tetrahydrofuran-2-carbonyl)piperidin-4-yl)-1H-indazol-5-yl)benzo[d]thiazol-6-yl)acetic acid] gave an EC50 (HIV-IIIb (wildtype); [1]) of 0.011 µM, an EC50 (HIV-IIIb IN T174I DE; [2]) of 0.789 µM and an EC50 (HIV-IIIb IN T174I BT; [3]) of 0.62 µM.

For `Cc1cc2nc(-c3ccc4c(c3)c(C3CCN(C5CN(C(=O)C6CC6)C5)CC3)nn4C)sc2c(-c2ccc(Cl)cc2)c1[C@H](OC(C)(C)C)C(=O)O` [Compound 152, (S)-2-(tert-butoxy)-2-(7-(4-chloro-phenyl)-2-(3-(1-(1-(cyclopropane-carbonyl)azetidin-3-yl)piperidin-4-yl)-1-methyl-1H-indazol-5-yl)-5-methylbenzo[d]thiazol-6-yl) acetic acid], the EC50 (HIV-IIIb (wildtype); [1]) was 0.023 µM, the EC50 (HIV-IIIb IN T174I DE; [2]) was 0.21 µM and the EC50 (HIV-IIIb IN T174I BT; [3]) was 0.175 µM.

Work on `Cc1cc2nc(-c3ccc4c(c3)c(N3CCN([C@H]5C[C@@H](O)C5)CC3)nn4C)sc2c(-c2ccc(Cl)cc2)c1[C@H](OC(C)(C)C)C(=O)O` [Compound 206, (S)-2-(tert-butoxy)-2-(7-(4-chloro-phenyl)-2-(3-(4-((1s,3s)-3-hydroxy-cyclobutyl)piperazin-1-yl)-1-methyl-1H-indazol-5-yl)-5-methylbenzo[d]thiazol-6-yl) acetic acid] yielded an EC50 (HIV-IIIb (wildtype); [1]) of 0.021 µM, an EC50 (HIV-IIIb IN T174I DE; [2]) of 0.539 µM and an EC50 (HIV-IIIb IN T174I BT; [3]) of 0.34 µM.

`CCn1nc2ccc(-c3nc4cc(C)c([C@H](OC(C)(C)C)C(=O)O)c(-c5ccc(Cl)cc5)c4s3)cc2c1C1CCN(C2COC2)CC1` [Compound 36, (S)-2-(tert-butoxy)-2-(7-(4-chlorophenyl)-2-(2-ethyl-3-(1-(oxetan-3-yl)piperidin-4-yl)-2H-indazol-5-yl)-5-methylbenzo[d]thiazol-6-yl)acetic acid] gave an EC50 (HIV-IIIb (wildtype); [1]) of 0.014 µM, an EC50 (HIV-IIIb IN T174I DE; [2]) of 3.58 µM and an EC50 (HIV-IIIb IN T174I BT; [3]) of 1.08 µM.

`Cc1cc2nc(-c3ccc4c(c3)c(C3CCN(C5CNC5)CC3)nn4C)sc2c(-c2ccc(Cl)cc2)c1[C@H](OC(C)(C)C)C(=O)O` [Compound 29, (S)-2-(2-(3-(1-(azetidin-3-yl)piperidin-4-yl)-1-methyl-1H-indazol-5-yl)-7-(4-chlorophenyl)-5-methylbenzo[d]thiazol-6-yl)-2-(tert-butoxy)acetic acid] showed an EC50 (HIV-IIIb (wildtype); [4]) of 0.052 µM, an EC50 (HIV-IIIb IN T174I DE; [2]) of 0.823 µM and an EC50 (HIV-IIIb IN T174I BT; [3]) of 0.646 µM.

Compound `Cc1cc2nc(-c3ccc4c(c3)c(C3CN(C(C)C)C3)nn4C)sc2c(-c2ccc(Cl)cc2)c1[C@H](OC1CC1)C(=O)O` [Compound 55, (S)-2-(7-(4-chlorophenyl)-2-(3-(1-isopropylazetidin-3-yl)-1-methyl-1H-indazol-5-yl)-5-methylbenzo[d]thiazol-6-yl)-2-cyclopropoxyacetic Acid] has an EC50 (HIV-IIIb (wildtype); [1]) of 0.036 µM, an EC50 (HIV-IIIb IN T174I DE; [2]) of 1.07 µM and an EC50 (HIV-IIIb IN T174I BT; [3]) of 0.372 µM.

Compound `COC(=O)N1CC(N2CCC(c3nn(C(F)F)c4ccc(-c5nc6cc(C)c([C@H](OC(C)(C)C)C(=O)O)c(-c7ccc(Cl)cc7)c6s5)nc34)CC2)C1` [Compound 14, (S)-2-(tert-butoxy)-2-(7-(4-chlorophenyl)-2-(1-(difluoromethyl)-3-(1-(1-(methoxycarbonyl)azetidin-3-yl)piperidin-4-yl)-1H-pyrazolo[4,3-b]pyridin-5-yl)-5-methylbenzo[d]thiazol-6-yl)acetic Acid] has an EC50 (HIV-IIIb (wildtype); [1]) of 0.005 µM, an EC50 (HIV-IIIb IN T174I DE; [2]) of 0.304 µM and an EC50 (HIV-IIIb IN T174I BT; [3]) of 0.109 µM.

`Cc1cc2nc(-c3ccc4c(c3)c(N3C5CCC3CN(C3COC3)C5)nn4C)sc2c(-c2ccc(Cl)cc2)c1[C@H](OC(C)(C)C)C(=O)O` [Compound 13, (2S)-2-(tert-butoxy)-2-(7-(4-chlorophenyl)-5-methyl-2-(1-methyl-3-(3-(oxetan-3-yl)-3,8-diazabicyclo[3.2.1]octan-8-yl)-1H-indazol-5-yl)benzo[d]thiazol-6-yl)acetic Acid] showed an EC50 (HIV-IIIb (wildtype); [4]) of 0.01 µM, an EC50 (HIV-IIIb IN T174I DE; [2]) of 3.13 µM and an EC50 (HIV-IIIb IN T174I BT; [3]) of 1.23 µM.

`Cc1cc2nc(-c3ccc4c(c3)c(N3CCNC3=O)nn4C)sc2c(-c2ccc(Cl)cc2)c1[C@H](OC(C)(C)C)C(=O)O` [Compound 78, (S)-2-(tert-butoxy)-2-(7-(4-chlorophenyl)-5-methyl-2-(1-methyl-3-(2-oxoimidazolidin-1-yl)-1H-indazol-5-yl)benzo[d]thiazol-6-yl)acetic acid] gave an EC50 (HIV-IIIb (wildtype); [1]) of 0.032 µM, an EC50 (HIV-IIIb IN T174I DE; [2]) of 3.19 µM and an EC50 (HIV-IIIb IN T174I BT; [3]) of 2.69 µM.

`CC(=O)N1CC[C@@H](N2CCC(c3nn(C)c4ccc(-c5nc6cc(C)c([C@H](OC(C)(C)C)C(=O)O)c(-c7ccc(Cl)cc7)c6s5)cc34)CC2)C1` [Compound 12, (S)-2-(2-(3-(1-((R)-1-acetylpyrrolidin-3-yl)piperidin-4-yl)-1-methyl-1H-indazol-5-yl)-7-(4-chlorophenyl)-5-methylbenzo[d]thiazol-6-yl)-2-(tert-butoxy)acetic Acid] showed an EC50 (HIV-IIIb (wildtype); [1]) of 0.01 µM, an EC50 (HIV-IIIb IN T174I DE; [2]) of 0.138 µM and an EC50 (HIV-IIIb IN T174I BT; [3]) of 0.081 µM.

“(S)-2-(2-(3-(1- ((R)-1-acetyl- pyrrolidin-3-yl) piperidin-4-yl)- 1-methyl-1H- pyrazolo[4,3-b] pyridin-5-yl)-7- (4-chlorophenyl)- 5-methylbenzo[d] thiazol-6-yl)-2- (tert-butoxy) acetic acid [Compound 169]” gave an EC50 (HIV-IIIb (wildtype); MT4 cells, HIV-IIIb wildtype, 5 days, CellTiter-Glo) of 0.002 µM, an EC50 (HIV-IIIb IN T174I DE; MT4 cells, HIV-IIIb IN T174I DE (dose escalation), 5 days, CellTiter-Glo, read-out: T174I DE EC50) of 0.086 µM and an EC50 (HIV-IIIb IN T174I BT; MT4 cells, HIV-IIIb IN T174I BT (viral breakthrough), 5 days, CellTiter-Glo, read-out: T174I BT EC50) of 0.036 µM.
